± gives the expanded uncertainty stated by the source.
What was measured:
[1] = Liquid; for mass density: 298.15 K, 101.33 kPa, Vibrating tube method; for vapor or sublimation pressure: Ebulliometric method (Recirculating still)
[2] = refractive index (Na D-line) (dimensionless); details: 298.15 K; 101.33 kPa; Liquid; Standard Abbe refractometry
[3] = mn = molality of the nth substance listed, in mol/kg; details: 298.15 K, 101 kPa, Liquid, Vibrating tube method

CCO [ethanol]
mass density [1]: 785.22 ± 0.22 kg/m3 | vapor or sublimation pressure ([1]; 352.75 K): 101 ± 1 kPa | refractive index [2]: 1.3599 ± 0.0004

CCOC(C)=O [ethyl acetate]
mass density [1]: 897.72 ± 0.1 kg/m3 | vapor or sublimation pressure ([1]; 350.45 K): 101 ± 1 kPa | refractive index [2]: 1.3698 ± 0.0004

[Cl-].[Cl-].[Mg+2] [magnesium chloride] + CCO
mass density ([3]; m1 = 0.0105): 782.98 ± 0.13 kg/m3 | mass density ([3]; m1 = 0.0211): 783.73 ± 0.13 kg/m3 | mass density ([3]; m1 = 0.0317): 784.5 ± 0.13 kg/m3 | mass density ([3]; m1 = 0.0423): 785.26 ± 0.13 kg/m3 | mass density ([3]; m1 = 0.053): 786.01 ± 0.13 kg/m3 | mass density ([3]; m1 = 0.0583): 786.38 ± 0.13 kg/m3 | mass density ([3]; m1 = 0.0636): 786.75 ± 0.13 kg/m3 | mass density ([3]; m1 = 0.0689): 787.12 ± 0.13 kg/m3 | mass density ([3]; m1 = 0.0743): 787.49 ± 0.13 kg/m3 | mass density ([3]; m1 = 0.0796): 787.86 ± 0.13 kg/m3 | mass density ([3]; m1 = 0.085): 788.23 ± 0.13 kg/m3 | mass density ([3]; m1 = 0.0903): 788.57 ± 0.13 kg/m3 | mass density ([3]; m1 = 0.0957): 788.93 ± 0.13 kg/m3

O=[N+]([O-])[O-].O=[N+]([O-])[O-].[Mg+2] [magnesium nitrate] + CCO
mass density ([3]; m1 = 0.0067): 782.9 ± 0.13 kg/m3 | mass density ([3]; m1 = 0.0135): 783.59 ± 0.13 kg/m3 | mass density ([3]; m1 = 0.0203): 784.17 ± 0.13 kg/m3 | mass density ([3]; m1 = 0.0271): 784.79 ± 0.13 kg/m3 | mass density ([3]; m1 = 0.0339): 785.43 ± 0.13 kg/m3 | mass density ([3]; m1 = 0.0373): 785.75 ± 0.13 kg/m3 | mass density ([3]; m1 = 0.0407): 786.06 ± 0.13 kg/m3 | mass density ([3]; m1 = 0.0441): 786.43 ± 0.13 kg/m3 | mass density ([3]; m1 = 0.0475): 786.74 ± 0.13 kg/m3 | mass density ([3]; m1 = 0.051): 787.05 ± 0.13 kg/m3 | mass density ([3]; m1 = 0.0544): 787.34 ± 0.13 kg/m3 | mass density ([3]; m1 = 0.0578): 787.64 ± 0.13 kg/m3 | mass density ([3]; m1 = 0.0612): 787.92 ± 0.13 kg/m3 | mass density ([3]; m1 = 0.0647): 788.22 ± 0.13 kg/m3 | mass density ([3]; m1 = 0.0681): 788.49 ± 0.13 kg/m3

O=[N+]([O-])[O-].O=[N+]([O-])[O-].[Zn+2] [nitric acid, zinc salt] + CCO
mass density ([3]; m1 = 0.0053): 785.9 ± 0.13 kg/m3 | mass density ([3]; m1 = 0.0106): 786.55 ± 0.13 kg/m3 | mass density ([3]; m1 = 0.0159): 787.2 ± 0.13 kg/m3 | mass density ([3]; m1 = 0.0212): 787.84 ± 0.13 kg/m3 | mass density ([3]; m1 = 0.0265): 788.49 ± 0.13 kg/m3 | mass density ([3]; m1 = 0.0292): 788.78 ± 0.13 kg/m3 | mass density ([3]; m1 = 0.0319): 789.09 ± 0.13 kg/m3 | mass density ([3]; m1 = 0.0346): 789.38 ± 0.13 kg/m3 | mass density ([3]; m1 = 0.0372): 789.7 ± 0.13 kg/m3 | mass density ([3]; m1 = 0.0399): 789.99 ± 0.13 kg/m3 | mass density ([3]; m1 = 0.0426): 790.29 ± 0.13 kg/m3 | mass density ([3]; m1 = 0.0453): 790.6 ± 0.13 kg/m3 | mass density ([3]; m1 = 0.048): 790.89 ± 0.13 kg/m3 | mass density ([3]; m1 = 0.0507): 791.19 ± 0.13 kg/m3 | mass density ([3]; m1 = 0.0533): 791.49 ± 0.13 kg/m3 | mass density ([3]; m1 = 0.0804): 794.55 ± 0.13 kg/m3
